We go through 1 compound from ChEMBL document CHEMBL5291721, “A preclinical secondary pharmacology resource illuminates target-adverse drug reaction associations of marketed drugs” (Nat Commun, 2023).

Experiment [1] deals with T1, Gamma-aminobutyric acid receptor subunit alpha-1/alpha-2/beta-2/gamma-2 (Homo sapiens, UniProt P14867+P18507+P47869+P47870). It counts as functional, cell-based.
Experiment [2] deals with 5-hydroxytryptamine receptor 2A (Homo sapiens, UniProt P28223). It is filed as functional, cell-based.
5-hydroxytryptamine receptor 2A, sequence (P28223 whole entry): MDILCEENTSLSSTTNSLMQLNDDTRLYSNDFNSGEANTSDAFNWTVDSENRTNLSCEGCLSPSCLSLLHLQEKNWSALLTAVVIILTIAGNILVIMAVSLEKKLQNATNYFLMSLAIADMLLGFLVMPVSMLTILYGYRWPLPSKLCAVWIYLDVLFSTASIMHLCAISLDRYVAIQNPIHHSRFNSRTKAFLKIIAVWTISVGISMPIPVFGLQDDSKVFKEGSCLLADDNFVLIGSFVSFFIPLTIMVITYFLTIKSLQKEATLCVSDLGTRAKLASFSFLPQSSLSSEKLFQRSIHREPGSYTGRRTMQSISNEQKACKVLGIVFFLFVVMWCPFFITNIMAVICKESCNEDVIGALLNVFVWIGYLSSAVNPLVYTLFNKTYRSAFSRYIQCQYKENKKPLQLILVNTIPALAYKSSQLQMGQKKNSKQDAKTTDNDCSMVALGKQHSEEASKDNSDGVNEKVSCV
In experiment [3] the target is T1, Gamma-aminobutyric acid receptor subunit alpha-1/alpha-2/beta-2/gamma-2. It counts as functional, cell-based. The source holds these as a separate data set.
Experiment [4] concerns the target T2, Alpha-1A adrenergic receptor (Homo sapiens, UniProt P35348).
T2 sequence (P35348 whole entry): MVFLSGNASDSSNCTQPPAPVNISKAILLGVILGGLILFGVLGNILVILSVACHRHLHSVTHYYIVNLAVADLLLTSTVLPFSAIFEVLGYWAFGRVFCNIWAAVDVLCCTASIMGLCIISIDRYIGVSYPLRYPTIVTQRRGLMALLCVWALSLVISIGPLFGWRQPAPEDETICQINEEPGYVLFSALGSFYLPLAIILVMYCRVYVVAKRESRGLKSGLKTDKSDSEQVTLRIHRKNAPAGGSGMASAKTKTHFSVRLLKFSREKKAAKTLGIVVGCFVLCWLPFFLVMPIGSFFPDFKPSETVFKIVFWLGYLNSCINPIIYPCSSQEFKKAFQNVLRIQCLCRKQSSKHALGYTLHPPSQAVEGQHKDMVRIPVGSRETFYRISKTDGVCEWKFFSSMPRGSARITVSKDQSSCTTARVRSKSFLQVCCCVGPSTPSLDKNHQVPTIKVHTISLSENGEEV
Also: assay procedure not described here.

T1 sequence (P14867 whole entry): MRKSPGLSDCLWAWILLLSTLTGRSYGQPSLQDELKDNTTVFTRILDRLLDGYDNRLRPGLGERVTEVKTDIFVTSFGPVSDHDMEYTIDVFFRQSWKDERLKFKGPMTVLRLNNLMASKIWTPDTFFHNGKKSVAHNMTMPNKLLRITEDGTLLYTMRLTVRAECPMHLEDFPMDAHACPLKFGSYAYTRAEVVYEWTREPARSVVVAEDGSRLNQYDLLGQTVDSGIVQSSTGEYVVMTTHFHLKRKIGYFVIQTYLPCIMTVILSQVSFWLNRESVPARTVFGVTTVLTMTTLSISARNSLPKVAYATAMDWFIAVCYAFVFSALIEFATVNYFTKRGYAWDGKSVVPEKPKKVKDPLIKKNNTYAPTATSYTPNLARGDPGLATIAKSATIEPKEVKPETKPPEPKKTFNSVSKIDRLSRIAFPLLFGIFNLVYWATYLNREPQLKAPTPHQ
T1 sequence (P47870 whole entry): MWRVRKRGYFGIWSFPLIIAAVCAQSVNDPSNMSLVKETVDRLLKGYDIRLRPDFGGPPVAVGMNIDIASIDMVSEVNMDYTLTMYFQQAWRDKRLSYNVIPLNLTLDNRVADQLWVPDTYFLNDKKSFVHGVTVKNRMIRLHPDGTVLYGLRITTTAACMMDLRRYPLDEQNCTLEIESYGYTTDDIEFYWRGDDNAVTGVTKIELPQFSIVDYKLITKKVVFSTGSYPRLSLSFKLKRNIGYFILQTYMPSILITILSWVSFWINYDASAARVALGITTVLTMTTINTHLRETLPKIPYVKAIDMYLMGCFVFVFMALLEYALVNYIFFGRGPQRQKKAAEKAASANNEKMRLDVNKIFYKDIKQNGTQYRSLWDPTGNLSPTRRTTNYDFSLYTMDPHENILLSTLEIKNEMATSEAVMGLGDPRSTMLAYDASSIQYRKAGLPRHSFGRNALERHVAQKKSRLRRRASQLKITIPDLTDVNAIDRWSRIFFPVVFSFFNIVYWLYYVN
T1 sequence (P18507 whole entry): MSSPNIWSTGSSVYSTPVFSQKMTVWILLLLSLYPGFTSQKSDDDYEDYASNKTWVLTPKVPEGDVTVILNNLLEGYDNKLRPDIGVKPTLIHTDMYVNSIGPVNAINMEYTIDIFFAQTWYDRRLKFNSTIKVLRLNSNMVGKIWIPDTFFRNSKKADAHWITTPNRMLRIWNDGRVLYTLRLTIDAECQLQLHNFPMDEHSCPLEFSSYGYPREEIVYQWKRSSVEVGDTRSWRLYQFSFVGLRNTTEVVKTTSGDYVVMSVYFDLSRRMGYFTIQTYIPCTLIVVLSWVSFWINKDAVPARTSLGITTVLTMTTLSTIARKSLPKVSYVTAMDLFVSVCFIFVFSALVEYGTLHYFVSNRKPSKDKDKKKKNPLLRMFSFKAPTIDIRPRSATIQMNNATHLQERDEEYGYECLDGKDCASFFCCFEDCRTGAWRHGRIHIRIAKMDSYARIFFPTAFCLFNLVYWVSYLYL
T1 sequence (P47869 whole entry): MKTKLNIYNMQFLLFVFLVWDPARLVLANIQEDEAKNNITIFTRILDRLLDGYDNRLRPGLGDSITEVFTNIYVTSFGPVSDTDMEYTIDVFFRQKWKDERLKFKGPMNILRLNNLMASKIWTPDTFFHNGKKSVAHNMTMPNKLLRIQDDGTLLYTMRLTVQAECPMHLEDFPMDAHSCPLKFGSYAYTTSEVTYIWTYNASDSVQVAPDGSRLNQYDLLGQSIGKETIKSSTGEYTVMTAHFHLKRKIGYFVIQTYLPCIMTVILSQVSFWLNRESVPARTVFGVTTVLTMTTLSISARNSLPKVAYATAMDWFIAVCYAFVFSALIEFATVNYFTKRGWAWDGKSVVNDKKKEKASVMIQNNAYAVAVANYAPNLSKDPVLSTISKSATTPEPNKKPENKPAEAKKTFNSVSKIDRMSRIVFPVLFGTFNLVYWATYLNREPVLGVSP

The AC50 is the concentration giving half of the maximal activity seen. Low values mean activity at low concentration, high ones activity only at high concentration. In the case of `Nc1ccc(/N=N/c2ccccc2)c(N)n1` [PHENAZOPYRIDINE], the AC50 in experiment [1] is above 30 µM; in experiment [2] it was above 30 µM; in experiment [3], above 30 µM; in experiment [4], 23.4 µM.
